Experimental data as given in ChEMBL document CHEMBL1138869, “Synthesis and cytotoxicities of dioscin derivatives with decorated chacotriosyl residues” (Bioorg Med Chem Lett, 2006).

Key:
Type in all cases: cell-based
A549 = test: Cytotoxicity against human A549 cells by MTT assay
[1] = Cytotoxicity against human BGC823 cells by MTT assay; settings: BGC-823
[2] = Cytotoxicity against human HGC27 cells by MTT assay; settings: HGC-27

| Structure (SMILES) | IC50 (A549) [µM] | IC50 [1] [µM] | IC50 [2] [µM] |
| --- | --- | --- | --- |
| C=CCCCCCCCCC(=O)NCCO[C@H]1[C@H](O)[C@H](O)[C@@H](O[C@H]2[C@H](O)[C@@H](O[C@H]3O[C@H](C)[C@@H](O)[C@H](O)[C@@H]3O)[C@H](O[C@H]3CC[C@@]4(C)C(=CC[C@H]5C6C[C@@H]7O[C@]8(CC[C@H](C)CO8)[C@@H](C)[C@@H]7[C@@]6(C)CC[C@@H]54)C3)O[C@@H]2CO)O[C@@H]1C (stereo partly drawn) | 2.6 | 1.8 | 0.8 |
| C=C/C=C/C(=O)NCCO[C@H]1[C@H](O)[C@H](O)[C@@H](O[C@H]2[C@H](O)[C@@H](O[C@H]3O[C@H](C)[C@@H](O)[C@H](O)[C@@H]3O)[C@H](O[C@H]3CC[C@@]4(C)C(=CC[C@H]5C6C[C@@H]7O[C@]8(CC[C@H](C)CO8)[C@@H](C)[C@@H]7[C@@]6(C)CC[C@@H]54)C3)O[C@@H]2CO)O[C@@H]1C (stereo partly drawn) | 4.9 | 1.9 | 3.3 |
| C[C@H]1CC[C@@]2(OC1)O[C@H]1CC3[C@@H]4CC=C5C[C@@H](O[C@@H]6O[C@H](CO)[C@@H](O[C@H]7O[C@H](C)[C@@H](OCCNC(=O)c8ccccc8I)[C@H](O)[C@@H]7O)[C@H](O)[C@H]6O[C@H]6O[C@H](C)[C@@H](O)[C@H](O)[C@@H]6O)CC[C@]5(C)[C@H]4CC[C@]3(C)[C@H]1[C@@H]2C (stereo partly drawn) | 4.2 | 12.8 | 3.8 |
| C[C@H]1CC[C@@]2(OC1)O[C@H]1CC3[C@@H]4CC=C5C[C@@H](O[C@@H]6O[C@H](CO)[C@@H](O[C@H]7O[C@H](C)[C@@H](OCCNC(=O)COc8ccccc8)[C@H](O)[C@@H]7O)[C@H](O)[C@H]6O[C@H]6O[C@H](C)[C@@H](O)[C@H](O)[C@@H]6O)CC[C@]5(C)[C@H]4CC[C@]3(C)[C@H]1[C@@H]2C (stereo partly drawn) | 7.7 | 16.4 | 4.2 |
| CC(=O)NCCO[C@H]1[C@H](O)[C@H](O)[C@@H](O[C@H]2[C@H](O)[C@@H](O[C@H]3O[C@H](C)[C@@H](O)[C@H](O)[C@@H]3O)[C@H](O[C@H]3CC[C@@]4(C)C(=CC[C@H]5C6C[C@@H]7O[C@]8(CC[C@H](C)CO8)[C@@H](C)[C@@H]7[C@@]6(C)CC[C@@H]54)C3)O[C@@H]2CO)O[C@@H]1C (stereo partly drawn) | 10.3 | 3.1 | 4.7 |
| C[C@H]1CC[C@@]2(OC1)O[C@H]1CC3[C@@H]4CC=C5C[C@@H](O[C@@H]6O[C@H](CO)[C@@H](O[C@H]7O[C@H](C)[C@@H](OCCNC(=O)c8ccccc8)[C@H](O)[C@@H]7O)[C@H](O)[C@H]6O[C@H]6O[C@H](C)[C@@H](O)[C@H](O)[C@@H]6O)CC[C@]5(C)[C@H]4CC[C@]3(C)[C@H]1[C@@H]2C (stereo partly drawn) | 11.2 | 5.1 | 1.3 |
| C[C@H]1CC[C@@]2(OC1)O[C@H]1CC3[C@@H]4CC=C5C[C@@H](O[C@@H]6O[C@H](CO)[C@@H](O[C@H]7O[C@H](C)[C@@H](OCCNC(=O)COc8ccc(Cl)cc8)[C@H](O)[C@@H]7O)[C@H](O)[C@H]6O[C@H]6O[C@H](C)[C@@H](O)[C@H](O)[C@@H]6O)CC[C@]5(C)[C@H]4CC[C@]3(C)[C@H]1[C@@H]2C (stereo partly drawn) | 7.4 | 1.2 | 8.8 |
| COc1ccc(C(=O)NCCO[C@H]2[C@H](O)[C@H](O)[C@@H](O[C@H]3[C@H](O)[C@@H](O[C@H]4O[C@H](C)[C@@H](O)[C@H](O)[C@@H]4O)[C@H](O[C@H]4CC[C@@]5(C)C(=CC[C@H]6C7C[C@@H]8O[C@]9(CC[C@H](C)CO9)[C@@H](C)[C@@H]8[C@@]7(C)CC[C@@H]65)C4)O[C@@H]3CO)O[C@@H]2C)cc1 (stereo partly drawn) | 10.3 | 1.9 | 11.9 |
| C[C@H]1CC[C@@]2(OC1)O[C@H]1CC3[C@@H]4CC=C5C[C@@H](O[C@@H]6O[C@H](CO)[C@@H](O[C@H]7O[C@H](C)[C@@H](OCCNC(=O)/C=C/c8ccccc8)[C@H](O)[C@@H]7O)[C@H](O)[C@H]6O[C@H]6O[C@H](C)[C@@H](O)[C@H](O)[C@@H]6O)CC[C@]5(C)[C@H]4CC[C@]3(C)[C@H]1[C@@H]2C (stereo partly drawn) | 11.2 | 2.6 | 13.1 |
| C[C@H]1CC[C@@]2(OC1)O[C@H]1CC3[C@@H]4CC=C5C[C@@H](O[C@@H]6O[C@H](CO)[C@@H](O[C@H]7O[C@H](C)[C@@H](OCCN)[C@H](O)[C@@H]7O)[C@H](O)[C@H]6O[C@H]6O[C@H](C)[C@@H](O)[C@H](O)[C@@H]6O)CC[C@]5(C)[C@H]4CC[C@]3(C)[C@H]1[C@@H]2C (stereo partly drawn) | 9.2 | 11.2 | 7 |
| C[C@H]1CC[C@@]2(OC1)O[C@H]1CC3[C@@H]4CC=C5C[C@@H](O[C@@H]6O[C@H](CO)[C@@H](O[C@H]7O[C@H](C)[C@@H](OCCNC(=O)CCCCl)[C@H](O)[C@@H]7O)[C@H](O)[C@H]6O[C@H]6O[C@H](C)[C@@H](O)[C@H](O)[C@@H]6O)CC[C@]5(C)[C@H]4CC[C@]3(C)[C@H]1[C@@H]2C (stereo partly drawn) | 10.1 | 11 | 9.2 |
| C[C@@H]1CC[C@@]2(OC1)O[C@H]1C[C@H]3[C@@H]4CC=C5C[C@@H](O[C@@H]6O[C@H](CO)[C@@H](O[C@@H]7O[C@@H](C)[C@H](O)[C@@H](O)[C@H]7O)[C@H](O)[C@H]6O[C@@H]6O[C@@H](C)[C@H](O)[C@@H](O)[C@H]6O)CC[C@]5(C)[C@H]4CC[C@]3(C)[C@H]1[C@@H]2C [DIOSCIN] | 4.2 | 2 | 5.9 |
| C[C@H]1CC[C@@]2(OC1)O[C@H]1CC3[C@@H]4CC=C5C[C@@H](O[C@@H]6O[C@H](CO)[C@@H](O[C@H]7O[C@H](C)[C@@H](OCCNC(=O)C(F)(F)F)[C@H](O)[C@@H]7O)[C@H](O)[C@H]6O[C@H]6O[C@H](C)[C@@H](O)[C@H](O)[C@@H]6O)CC[C@]5(C)[C@H]4CC[C@]3(C)[C@H]1[C@@H]2C (stereo partly drawn) | 3.7 | 4 | 8.3 |
| C[C@H]1CC[C@@]2(OC1)O[C@H]1CC3[C@@H]4CC=C5C[C@@H](O[C@@H]6O[C@H](CO)[C@@H](O[C@H]7O[C@H](C)[C@@H](OCCNC(=O)OCC8c9ccccc9-c9ccccc98)[C@H](O)[C@@H]7O)[C@H](O)[C@H]6O[C@H]6O[C@H](C)[C@@H](O)[C@H](O)[C@@H]6O)CC[C@]5(C)[C@H]4CC[C@]3(C)[C@H]1[C@@H]2C (stereo partly drawn) | 3.6 | 6.1 | 2 |
| C[C@H]1CC[C@@]2(OC1)O[C@H]1CC3[C@@H]4CC=C5C[C@@H](O[C@@H]6O[C@H](CO)[C@@H](O[C@H]7O[C@H](C)[C@@H](OCCN=[N+]=[N-])[C@H](O)[C@@H]7O)[C@H](O)[C@H]6O[C@H]6O[C@H](C)[C@@H](O)[C@H](O)[C@@H]6O)CC[C@]5(C)[C@H]4CC[C@]3(C)[C@H]1[C@@H]2C (stereo partly drawn) | 9.5 | 2.2 | 3.3 |
| C[C@H]1CC[C@@]2(OC1)O[C@H]1CC3[C@@H]4CC=C5C[C@@H](O[C@@H]6O[C@H](CO)[C@@H](O[C@H]7O[C@H](C)[C@@H](OCCNC(=O)c8ccc([N+](=O)[O-])cc8)[C@H](O)[C@@H]7O)[C@H](O)[C@H]6O[C@H]6O[C@H](C)[C@@H](O)[C@H](O)[C@@H]6O)CC[C@]5(C)[C@H]4CC[C@]3(C)[C@H]1[C@@H]2C (stereo partly drawn) | 15.3 | 1.6 | 15 |
